{"source": "patent US20100022556A1", "about": "“Therapeutic combinations comprising a long acting dihydropyridine calcium-channel blocker and a statin” (CHIESI FARMACEUTICI S.P.A., priority 2005, published 2010)", "key": {"[1]": {"system": "plasma intercellular adhesion molecule type-1 (ICAM-1)", "experiment": "Plasma ICAM-1 in hypertensive, hypercholesterolemic patients", "format": "in vivo, human", "conditions": "for change in ICAM-1 mean value vs placebo: 12 week treatment; for ICAM-1: plasma, patients, end of 12 week treatment", "protocol": "(§1) The aim of this study was to evaluate the effect of the manidipine-simvastatin combination on plasma tissue plasminogen activator (t-PA) and inhibitor (PAI-1) activity, on plasma intercellular adhesion molecule type-1 (ICAM-1) and on serum C-reactive protein (CRP) in hypertensive, hypercholesterolemic patients.\n(§2) After 4 week placebo run-in period, 30 hypertensive hypercholesterolemic patients were randomized to a manidipine 20 mg or simvastatin 40 mg or a manidipine-simvastatin fixed combination treatment, according to 3×3 cross-over design; each treatment had 12 week duration.\n(§3) The last day of the placebo run-in period and of each treatment period blood pressure was measured and a venous blood sample was taken (at the same hour in the morning) to evaluate plasma t-PA and PAI-1 activity, TC plasma, ICAM-1 and CRP."}, "[2]": {"system": "inhibitor (PAI-1)", "experiment": "Plasma PAI-1 activity in hypertensive, hypercholesterolemic patients", "format": "in vivo, human", "conditions": "for change in PAI-1 activity vs placebo: 12 week treatment; for PAI-1: plasma activity, patients, end of 12 week treatment", "protocol": "as §1, §2, §3"}, "[3]": {"system": "ischemic-reperfused myocardium", "conditions": "isolated rat hearts; simvastatin: normocholesterolemic rat hearts; cited from earlier work"}, "[4]": {"system": "serum C-reactive protein (CRP)", "experiment": "Serum CRP in hypertensive, hypercholesterolemic patients", "format": "in vivo, human", "conditions": "end of 12 week treatment", "protocol": "as §1, §2, §3"}, "[5]": {"experiment": "Blood pressure in hypertensive, hypercholesterolemic patients (3x3 cross-over trial)", "format": "in vivo, human", "conditions": "manidipine 20 mg, simvastatin 40 mg or fixed combination, end of 12 week treatment", "protocol": "as §1, §2, §3"}, "[6]": {"system": "perfused rat heart preparations submitted to ischemia-reperfusion", "experiment": "Myocardial ischemia-reperfusion damage, perfused hearts from orally treated rats", "format": "in vivo, Male Wistar rats", "conditions": "oral gavage once a day for 5 days; manidipine 1 and 3 mg/kg, simvastatin 1 mg/kg, alone or combined", "protocol": "The hearts were excised from rats orally treated for 5 consecutive days with manidipine and simvastatin alone or in combination. […] Data are means±SEM of 8 hearts per group. *P<0.05, **P<0.01, ***P<0.001 vs control; #P<0.01 vs simvastatin alone.\nThe aim of this study was to evaluate the protective effects of the manidipine-simvastatin combination against myocardial ischemia-reperfusion damage in the rat.\nThe study was performed according to a method described previously (Rossoni G et al Pharmacol Exp Ther. 2003 307(2), 633-9).\nMale Wistar rats were randomly divided into six groups (n=6-8 rats per group). Manidipine (1 mg/kg and 3 mg/kg) simvastatin (1 mg/kg) were administered alone or in combination by oral gavage once a day for five consecutive days.\nThe following parameters were determined:\ni) the left ventricular end-diastolic pressure (LVEDP) and the left ventricular developed pressure (LVDevP; peak left ventricular systolic pressure minus LVEDP);\nii) the activities of creatine kinase (CK) and lactate dehydrogenase (LDH) in the heart perfusate.\nThe data were expressed as mean±S.E.M (standard error of the mean)."}, "[7]": {"system": "total cholesterol", "experiment": "Total cholesterol (TC) in hypertensive, hypercholesterolemic patients", "format": "in vivo, human", "conditions": "for TC: patients, end of 12 week treatment", "protocol": "as §3"}, "[8]": {"system": "plasma tissue plasminogen activator (t-PA)", "experiment": "Plasma t-PA activity in hypertensive, hypercholesterolemic patients", "format": "in vivo, human", "conditions": "for t-PA: plasma activity, patients, end of 12 week treatment", "protocol": "as §1, §2, §3"}, "[9]": {"conditions": "change vs placebo, 12 week treatment"}}}
{"smiles": "COC(=O)C1=C(C)NC(C)=C(C(=O)OCCN2CCN(C(c3ccccc3)c3ccccc3)CC2)C1c1cccc([N+](=O)[O-])c1", "note": "(racemic) [Manidipine, (±)-1,4-dihydro-2,6-dimethyl-4-(3-nitrophenyl)-3,5-pyridinedicarboxylic acid 2-[4-(diphenylmethyl)-1-piperazinyl]ethyl methyl ester]", "values": [{"measurement": "change in ICAM-1 mean value vs placebo", "setting": "[1]", "value": -17.6, "unit": "ng/mL"}, {"measurement": "ICAM-1", "setting": "[1]", "value": "220.2 ± 29.8", "unit": "ng/mL"}, {"measurement": "change in PAI-1 activity vs placebo", "setting": "[2]", "value": "did not affect"}, {"measurement": "PAI-1", "setting": "[2]", "value": "24.9 ± 12.6", "unit": "U/ml"}, {"measurement": "protection of ischemic-reperfused myocardium", "setting": "[3]", "value": "relevant cardioprotection"}, {"measurement": "CRP", "setting": "[4]", "value": "0.34 ± 0.20", "unit": "mg/dL"}, {"measurement": "DBP", "setting": "[5]", "value": "84.1 ± 4.8", "unit": "mmHg"}, {"measurement": "SBP", "setting": "[5]", "value": "140.5 ± 10.7", "unit": "mmHg"}, {"measurement": "rise in LVEDP during ischemia and reperfusion", "setting": "[6]", "value": "significantly reduced according to the dose used"}, {"measurement": "TC", "setting": "[7]", "value": "253.8 ± 29.6", "unit": "mg/dL"}, {"measurement": "change in t-PA activity vs placebo", "setting": "[8]; [9]", "value": "+0.22 U/ml"}, {"measurement": "t-PA", "setting": "[8]", "value": "0.71 ± 0.19", "unit": "U/ml"}]}
{"smiles": "COC(=O)C1=C(C)NC(C)=C(C(=O)OC2CCCN(Cc3ccccc3)C2)C1c1cccc([N+](=O)[O-])c1", "note": "(centres unmarked) [benidipine]", "values": [{"measurement": "protection of ischemic-reperfused myocardium", "setting": "[3]", "value": "relevant cardioprotection"}]}
{"smiles": "CCC(C)(C)C(=O)O[C@H]1C[C@@H](C)C=C2C=C[C@H](C)[C@H](CC[C@@H]3C[C@@H](O)CC(=O)O3)[C@H]21", "note": "[Simvastatin, simvastatin]", "values": [{"measurement": "change in ICAM-1 mean value vs placebo", "setting": "[1]", "value": -30.4, "unit": "ng/mL"}, {"measurement": "ICAM-1", "setting": "[1]", "value": "207.4 ± 26", "unit": "ng/mL"}, {"measurement": "change in PAI-1 activity vs placebo", "setting": "[2]", "value": "−8.5", "unit": "U/ml"}, {"measurement": "PAI-1", "setting": "[2]", "value": "16.1 ± 7.3", "unit": "U/ml"}, {"measurement": "CRP", "setting": "[4]", "value": "0.16 ± 0.12", "unit": "mg/dL"}, {"measurement": "DBP", "setting": "[5]", "value": "98.2 ± 6.2", "unit": "mmHg"}, {"measurement": "SBP", "setting": "[5]", "value": "155.4 ± 11.9", "unit": "mmHg"}, {"measurement": "change in total cholesterol mean value vs placebo", "setting": "[7]; [9]", "value": -52.7, "unit": "mg/dL"}, {"measurement": "TC", "setting": "[7]", "value": "202.2 ± 26.4", "unit": "mg/dL"}, {"measurement": "t-PA", "setting": "[8]", "value": "0.51 ± 0.14", "unit": "U/ml"}]}
